Data from patent US12540117B2, “Aniline compound used as RORγ regulator” (SHANGHAI LITEDD CO., LTD., priority 2020, dated 2026).

Legend:
[1] = system: Th17 cells differentiation and secretion of IL-17; test: Inhibition of Th17 differentiation in human PBMC (IL-17 ELISA); format: cell-based; details: for Emax: Homo sapiens, PBMC, maximum inhibition rate, maximum concentration 3 μM; for IC50: IL-17 secretion, human PBMC, 48 hours
Description: Test procedure: the PBMC cells were first thawed and plated, and then stimulated with the stimulating factors (anti-hCD28: 5 μg/mL; rhTGF-β1: 5 ng/mL; rhIL-6: 20 ng/mL; rhIL-23: 10 ng/mL) to differentiate to Th17, while different concentrations of compounds were added, with the maximum concentration starting from 3 μM. After 48 hours, the supernatant was collected for IL-17 ELISA detection. The inhibition rates of the compounds to inhibit the secretion of IL-17 by Th17 cells were determined, as compared with the vehicle group, and the IC50 values were fitted with Graphad8.0.

[2] = Pharmacokinetic (PK) assay in mice; format: in vivo, C57BL/6 mice; details: for AUC(0-t) / Cmax / half-life / Vd / bioavailability: C57BL/6, mouse, plasma; for Vd: read-out: Vss; for bioavailability: Po 5 mg/kg vs IV 1 mg/kg
Description: The PK of each compound was determined as follows: 6 C57BL/6 mice (obtained from Shanghai Lingchang Biotechnology Co., Ltd.) were divided into two groups with 3 in each group. One group was administered intravenously at a dose of 1 mg/kg in the vehicle of 5% DMSO/95% (20% Captisol); the other group was administered by oral gavage at a dose of 5 mg/kg in the vehicle of 0.5% CMC-Na/0.5% Tween 80. Blood samples were collected from saphenous vein of lower leg in each group at 0, 0.083, 0.25, 0.5, 1, 2, 4, 6, 8 and 24 h after administration. Approximately 40 μL of the blood samples were collected into anticoagulant tubes containing EDTA-K2 Immediately after collection, the tubes were inverted at least 5 times to ensure uniform mixing, and then placed on ice. The blood samples collected at each time point were centrifuged at 4° C., 8000 rpm for 5 minutes to obtain plasma. Another 1.5 mL centrifuge tube was marked with the compound name, animal number, and time point, and the plasma was transferred to this tube. The plasma was stored at −80° C. until analysis.
Compound concentrations in the plasma were determined by UPLC-MS/MS method, and the pharmacokinetic parameters were calculated from the obtained data by Phoenix WinNolin 6.4 pharmacokinetic software.

[3] = Metabolic stability in human liver microsomes; format: in vitro ADME; details: for half-life: 0.5 mg protein/mL; for microsomal CLint: read-out: CLint(mic)
Text: (§1) According to standard methods for investigating in vitro metabolic stability in the art, e.g., the methods described in Kerns, Edward H. and Di Li (2008). Drug-like Properties: Concepts, Structure Design and Methods: from ADME to Toxicity Optimisation. San Diego: Academic Press; Di, Li et al., Optimisation of a Higher Throughput Microsomal Stability Screening Assay for Profiling Drug Discovery Candidates, J. Biomol. Screen. 2003, 8(4), 453, the liver microsomal metabolic stability test of the compounds of the present disclosure was carried out analogously as follows. The incubation system comprising 0.5 mg protein/mL microsomes, cofactors, and PBS, was pre-incubated at 37° C. for 3 min, and then added the substrate (i.e., the test compounds) to initiate the reaction. Samples were taken at 0, 1, 5, 10, 15, 20, 30 and 60 min from the start of the reaction, and an appropriate terminator was added to terminate the reaction. Sample treatment (n=3): appropriate samples were added respectively, vortexed and centrifuged at high speed. The supernatants were collected and detected for the substrate by HPLC-MS/MS. The peak area at the 0 mm was taken as 100%. The peak areas at other time points were converted to percentages of remaining. The natural logarithms of the percentages of remaining at each time point was plotted against the incubation time, and the slope (−k) was calculated by linear regression. Then, Clint (μL/min/mg) and half-life (T½, min.) of the compounds were calculated following the equation: Inherent clearance rate (Clint)=(k*Volume of incubation solution)/Mass of liver microsomes.

[4] = Metabolic stability in mouse liver microsomes; format: in vitro ADME, CD-1 mice; details: for half-life: CD-1, 0.5 mg protein/mL; for microsomal CLint: CD-1, read-out: CLint(mic)
Text: as §1

RORγt = molecular target: T1, RORγt (Homo sapiens, UniProt P51449); test: In vitro luciferase reporter assay of RORγt inhibition (GAL4-RORγ-LBD in HEK293T); details: for Emax: HEK-293T, relative maximum inhibition rate relative to AZD-0284 at 10 μM; for IC50: IC50, RORγt luciferase reporter gene, HEK293T
T1 sequence (P51449 269-508 limits assumed): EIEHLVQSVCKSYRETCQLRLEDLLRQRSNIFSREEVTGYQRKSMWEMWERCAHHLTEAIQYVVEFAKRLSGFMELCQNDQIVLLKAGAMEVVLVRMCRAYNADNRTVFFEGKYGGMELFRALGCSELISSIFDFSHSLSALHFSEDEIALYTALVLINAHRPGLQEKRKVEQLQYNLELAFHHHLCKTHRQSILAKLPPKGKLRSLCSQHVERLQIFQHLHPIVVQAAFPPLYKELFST
Description: The RORγ-LBD coding sequence was inserted into pBIND plasmid (Promega, E1581). The expression vector and a reporter vector (pGL4.35 carrying a stably integrated luciferase reporter gene driven by GAL4 promoter) were co-expressed in HEK293T host cells. When the inhibitor binds to the corresponding chimeric receptor, the chimeric receptor binds to the GAL4 binding site on the reporter gene carrier and inhibits reporter gene expression. The inhibition activity of the compounds on RORγ was determined according to the intensity of the chemiluminescence signal.
2.2 Cell Transfection • a) Balancing the Trans-IT transfection reagent at room temperature; • b) Adding 20 μl of the transfection reagent and 600 μl of Opti-MEM™ medium without contacting the tube wall, mixing uniformly through blowing and pipetting by a pipette gun, and allowing to stand at room temperature for 5 minutes; • c) Adding 10 μg of the plasmid to the transfection reagent (see Step 2.2.b), and allowing to stand at room temperature for 20 minutes; • Plasmids: 5 μg of pBIND-RORγ and 5 μg of pGL4.35 plasmids were respectively added therein; • d) Adding the mixed DNA transfection reagent to a 100 mm cell culture dish (see Step 2.1); • e) Placing the dish in an incubator at 37° C. and 5% CO2 for 5 h. […] Calculation of % Inhibition
[formula] • RLUcmpd: fluorescence value of test compounds • RLUpositive: average value of positive control • RLUvehicle: average value of negative control
IC50s of the compounds were calculated by fitting the % Inhibition and the logarithm values of the compound concentration using Graphad 8.0.

SMILES	Emax [1] [%]	IC50 [1] [nM]	AUC(0-t) ([2]; IV, 1 mg/kg) [ng·h/mL]	Cmax ([2]; IV, 1 mg/kg) [ng/mL]	half-life ([2]; IV, 1 mg/kg) [h]	Vd ([2]; IV, 1 mg/kg) [L/kg]	bioavailability [2] [%]	AUC(0-t) ([2]; Po, 5 mg/kg) [ng·h/mL]	Cmax ([2]; Po, 5 mg/kg) [ng/mL]	half-life ([2]; Po, 5 mg/kg) [h]	CL_obs ([2]; IV, 1 mg/kg) [mL/min/kg]	half-life [3] [h]	Remaining % (T = 60 min) [3] [%]	microsomal CLint [3] [µL/min/mg]	half-life [4] [h]	microsomal CLint [4] [µL/min/mg]	Remaining % (T = 60 min) [4] [%]	Emax (RORγt) [%]	IC50 (RORγt) [nM]
CCS(=O)(=O)c1ccc2c(c1)CCN(C(C)=O)C2C(=O)Nc1ccc(C(O)(C(F)(F)F)C(F)(F)F)cc1 (racemic) [Example 1, 2-Acetyl-6-(ethylsulfonyl)-N-(4-(1,1,1,3,3,3-hexafluoro-2-hydroxypropan-2-yl)phenyl)-1,2,3,4-tetrahydroisoquinoline-1-carboxamide]	79	51.4	1850	1390	5.09	2.71	84	9640	816	3.91	7.12	> 2.42	94.2	< 9.6	> 2.42	< 9.6	94.5	102	19.1
CCS(=O)(=O)c1ccc2c(c1)CCN(C(C)=O)C2C(=O)Nc1ccc(C(F)(C(F)(F)F)C(F)(F)F)cc1 (racemic) [Example 7, 2-Acetyl-6-(ethylsulfonyl)-N-(4-(perfluoropropan-2-yl)phenyl)-1,2,3,4-tetrahydroisoquinoline-1-carboxamide]	72	21.1	4870	703	39.9	4.02	83.5	20300	1080	37.6	1.23	1.26	61.0	18.4	> 2.42	< 9.6	79.7	99.6	12.4
CCS(=O)(=O)c1ccc2c(c1)CCN(C(C)=O)C2C(=O)Nc1ccc(C(O)(C(F)(F)F)C(F)(F)F)cc1 (single isomer, unassigned) [Example 2, (R)-2-acetyl-6-(ethylsulfonyl)-N-(4-(1,1,1,3,3,3-hexafluoro-2-hydroxypropan-2-yl)phenyl)-1,2,3,4-tetrahydroisoquinoline-1-carboxamide or (S)-2-acetyl-6-(ethylsulfonyl)-N-(4-(1,1,1,3,3,3-hexafluoro-2-hydroxypropan-2-yl)phenyl)-1,2,3,4-tetrahydroisoquinoline-1-carboxamide]	78.3	22.7	1300	2310	1.78	1.06	82.1	5330	553	3.31	12.8	> 2.42	82.2	< 9.6	> 2.42	< 9.6	102.3	100	8
CCS(=O)(=O)c1cc2c(s1)C(C(=O)Nc1ccc(C(O)(C(F)(F)F)C(F)(F)F)cc1)N(C(C)=O)CC2 (centres unmarked) [Example 6, 6-Acetyl-2-(ethylsulfonyl)-N-(4-(1,1,1,3,3,3-hexafluoro-2-hydroxypropan-2-yl)phenyl)-4,5,6,7-tetrahydrothieno[2,3-c]pyridine-7-carboxamide]												> 2.42	70.2	< 9.6	1.54	14.9	59.4	99.9	113
